According to US9732087B2, “Diamino-pyridine, pyrimidine, and pyridazine modulators of the histamine H4 receptor” (JANSSEN PHARMACEUTICA NV, priority 2008, dated 2017):

Biological target: human H4 receptor (Homo sapiens (Human), UniProt Q9H3N8)
Test: Binding assay on recombinant human histamine H4 receptor ([3H]histamine competition, SK-N-MC cell membranes)
Conditions: membranes harvested with cell harvester; [3H]histamine 10 nM; average of results; read-out: Cell Harvester Ki
Summary of the method: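 Scintillation counting of filter-bound [3H]histamine after rapid harvesting on 0.5% PEI-treated GF/C filters with ice-cold Tris/EDTA washes. Receptor source: 30,000 g membrane pellets of SK-N-MC cells stably or transiently expressing human H4. Values shown as '>' are the top concentration tested.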

human H4 receptor, sequence (Q9H3N8 whole entry): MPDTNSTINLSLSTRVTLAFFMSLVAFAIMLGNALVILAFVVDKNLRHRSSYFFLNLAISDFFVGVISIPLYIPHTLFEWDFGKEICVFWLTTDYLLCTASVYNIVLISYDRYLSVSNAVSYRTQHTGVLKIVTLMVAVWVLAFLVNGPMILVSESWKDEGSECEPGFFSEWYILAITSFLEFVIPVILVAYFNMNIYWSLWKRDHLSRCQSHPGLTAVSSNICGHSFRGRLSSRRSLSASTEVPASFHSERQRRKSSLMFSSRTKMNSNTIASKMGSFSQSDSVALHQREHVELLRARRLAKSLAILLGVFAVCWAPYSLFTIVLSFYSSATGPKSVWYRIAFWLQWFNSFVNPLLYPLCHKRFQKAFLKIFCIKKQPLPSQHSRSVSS

| SMILES | Ki [nM] |
| --- | --- |
| CC(C)CNc1cc(N2C[C@H]3CCN[C@H]3C2)cnn1 [Example 318, 5-[(3aR,6aR)-Hexahydropyrrolo[3,4-b]pyrrol-5(1H)-yl]-N-(2-methylpropyl)pyridazin-3-amine] | 1240 |
| CNC1CN(c2cnnc(NCC(C)C)c2)C1 [Example 319, 5-[3-(Methylamino)azetidin-1-yl]-N-(2-methylpropyl)pyridazin-3-amine] | 478 |
| CNC1CN(c2cnnc(NCCOC)c2)C1 [Example 320, N-(2-Methoxyethyl)-5-[3-(methylamino)azetidin-1-yl]pyridazin-3-amine] | 4310 |
| C[C@@H](Nc1cc(N2CC[C@@H](N)C2)cnn1)c1ccccc1 [Example 321, 5-[(3R)-3-Aminopyrrolidin-1-yl]-N-[(1R)-1-phenylethyl]pyridazin-3-amine] | 626 |
| NC1CN(c2cnnc(NC3CC4CCC3C4)c2)C1 (stereo not shown) [Example 322, 5-(3-Aminoazetidin-1-yl)-N-bicyclo[2.2.1]hept-2-ylpyridazin-3-amine] | 88.1 |
| CC(C)(C)CNc1cc(N2CC(N)C2)cnn1 [Example 323, 5-(3-Aminoazetidin-1-yl)-N-(2,2-dimethylpropyl)pyridazin-3-amine] | > 10000 |
| CNC1CN(c2cnnc(NCC(C)(C)C)c2)C1 [Example 324, N-(2,2-Dimethylpropyl)-5-[3-(methylamino)azetidin-1-yl]pyridazin-3-amine] | 899 |
| CNC1CN(c2cnnc(NC3CCCCC3)c2)C1 [Example 325, N-Cyclohexyl-5-[3-(methylamino)azetidin-1-yl]pyridazin-3-amine] | 798 |
| NC1CN(c2cnnc(NC3CCCC3)c2)C1 [Example 326, 5-(3-Aminoazetidin-1-yl)-N-cyclopentylpyridazin-3-amine] | 2740 |
| CNC1CN(c2cnnc(NCC3CC3)c2)C1 [Example 327, N-(Cyclopropylmethyl)-5-[3-(methylamino)azetidin-1-yl]pyridazin-3-amine] | 95.3 |
| CC(C)CNc1cc(N2CC(N)C2)cnn1 [Example 328, 5-(3-Aminoazetidin-1-yl)-N-(2-methylpropyl)pyridazin-3-amine] | 1680 |
| NC1CN(c2cnnc(NCc3ccccc3)c2)C1 [Example 329, 5-(3-Aminoazetidin-1-yl)-N-benzylpyridazin-3-amine] | > 10000 |
| CNC1CN(c2cnnc(NCc3ccccc3)c2)C1 [Example 330, N-Benzyl-5-[3-(methylamino)azetidin-1-yl]pyridazin-3-amine] | 2590 |
| CNC1CN(c2cnnc(NC3CCCC3)c2)C1 [Example 332, N-Cyclopentyl-5-[3-(methylamino)azetidin-1-yl]pyridazin-3-amine] | 1660 |
| NC1CN(c2cnnc(NC3CC3)c2)C1 [Example 333, 5-(3-Aminoazetidin-1-yl)-N-cyclopropylpyridazin-3-amine] | > 10000 |
| CNC1CN(c2cnnc(NCCCO)c2)C1 [Example 334, 3-({5-[3-(Methylamino)azetidin-1-yl]pyridazin-3-yl}amino)propan-1-ol] | 2570 |
| COCCNc1cc(N2CC(N)C2)cnn1 [Example 335, 5-(3-Aminoazetidin-1-yl)-N-(2-methoxyethyl)pyridazin-3-amine] | > 10000 |
| N[C@H]1CCN(c2cnnc(NC3CC3)c2)C1 [Example 336, 5-[(3S)-3-Aminopyrrolidin-1-yl]-N-cyclopropylpyridazin-3-amine] | > 10000 |
| N[C@@H]1CCN(c2cnnc(NCc3ccccn3)c2)C1 [Example 337, 5-[(3R)-3-Aminopyrrolidin-1-yl]-N-(pyridin-2-ylmethyl)pyridazin-3-amine] | > 10000 |
| CC(C)CNc1cc(N2CC[C@H](N)C2)cnn1 [Example 339, 5-[(3S)-3-Aminopyrrolidin-1-yl]-N-(2-methylpropyl)pyridazin-3-amine] | 220 |
| N[C@@H]1CCN(c2cnnc(NCc3ccccc3)c2)C1 [Example 340, 5-[(3R)-3-Aminopyrrolidin-1-yl]-N-benzylpyridazin-3-amine] | 2030 |
| COc1ccc(CNc2cc(N3CC[C@@H](N)C3)cnn2)cc1 [Example 341, 5-[(3R)-3-Aminopyrrolidin-1-yl]-N-(4-methoxybenzyl)pyridazin-3-amine] | > 10000 |
| N[C@@H]1CCN(c2cnnc(NCc3ccc(F)cc3)c2)C1 [Example 342, 5-[(3R)-3-Aminopyrrolidin-1-yl]-N-(4-fluorobenzyl)pyridazin-3-amine] | 936 |
| Cc1ccc(CNc2cc(N3CC[C@@H](N)C3)cnn2)cc1 [Example 343, 5-[(3R)-3-Aminopyrrolidin-1-yl]-N-(4-methylbenzyl)pyridazin-3-amine] | > 10000 |
| Cc1ccc(CNc2cc(N3CCNCC3)cnn2)cc1 [Example 344, N-(4-Methylbenzyl)-5-piperazin-1-ylpyridazin-3-amine] | > 10000 |
| c1nnc(NC2CCCC2)cc1N1C[C@H]2CCN[C@H]2C1 [Example 345, N-Cyclopentyl-5-[(3aR,6aR)-hexahydropyrrolo[3,4-b]pyrrol-5(1H)-yl]pyridazin-3-amine] | 1320 |

| SMILES | Ki [nM] |
| --- | --- |
| Fc1ccc(CNc2cc(N3CCNCC3)cnn2)cc1 [Example 346, N-(4-Fluorobenzyl)-5-piperazin-1-ylpyridazin-3-amine] | > 10000 |
| COc1ccc(CNc2cc(N3CCNCC3)cnn2)cc1 [Example 347, N-(4-Methoxybenzyl)-5-piperazin-1-ylpyridazin-3-amine] | > 10000 |
| c1ccc(CNc2cc(N3CCNCC3)cnn2)cc1 [Example 348, N-Benzyl-5-piperazin-1-ylpyridazin-3-amine] | > 10000 |
| C[C@@H](Nc1cc(N2CCNCC2)cnn1)c1ccccc1 [Example 349, N-[(1R)-1-Phenylethyl]-5-piperazin-1-ylpyridazin-3-amine] | > 10000 |
| CC(C)(CO)CNc1cc(N2CC[C@@H](N)C2)cnn1 [Example 350, 3-({5-[(3R)-3-Aminopyrrolidin-1-yl]pyridazin-3-yl}amino)-2,2-dimethylpropan-1-ol] | 1720 |
| CNC1CN(c2cnnc(NC3CC3)c2)C1 [Example 351, N-Cyclopropyl-5-[3-(methylamino)azetidin-1-yl]pyridazin-3-amine] | 206 |
| CNC1CN(c2cnnc(NCc3ccccn3)c2)C1 [Example 352, 5-[3-(Methylamino)azetidin-1-yl]-N-(pyridin-2-ylmethyl)pyridazin-3-amine] | > 10000 |
| CC(C)CNc1cc(N2CC[C@@H](N)C2)cnn1 [Example 353, 5-[(3R)-3-Aminopyrrolidin-1-yl]-N-(2-methylpropyl)pyridazin-3-amine] | 106 |
| c1nnc(NC2CCCC2)cc1N1CCNCC1 [Example 354, N-Cyclopentyl-5-piperazin-1-ylpyridazin-3-amine] | 2130 |
| c1nnc(NC2CCCCC2)cc1N1CCNCC1 [Example 355, N-Cyclohexyl-5-piperazin-1-ylpyridazin-3-amine] | 2900 |
| CCCCNc1cc(N2CCNCC2)cnn1 [Example 356, N-Butyl-5-piperazin-1-ylpyridazin-3-amine] | 1600 |
| CC(C)(C)CNc1cc(N2CCNCC2)cnn1 [Example 357, N-(2,2-Dimethylpropyl)-5-piperazin-1-ylpyridazin-3-amine] | 4370 |
| NC1CN(c2cnnc(NCC3CCCC3)c2)C1 [Example 358, 5-(3-Aminoazetidin-1yl)-N-(cyclopentylmethyl)pyridazin-3-amine] | > 10000 |
| N[C@@H]1CCN(c2cnnc(NCC3CCCC3)c2)C1 [Example 359, 5-[(3R)-3-Aminopyrrolidin-1-yl]-N-(cyclopentylmethyl)pyridazin-3-amine] | 161 |
| c1nnc(NCC2CCCC2)cc1N1C[C@H]2CCN[C@H]2C1 [Example 360, N-(Cyclopentylmethyl)-5-[(3aR,6aR)-hexahydropyrrolo[3,4-b]pyrrol-5(1H)-yl]pyridazin-3-amine] | 1170 |
| c1nnc(NCC2CC2)cc1N1CCNCC1 [Example 361, N-(Cyclopropylmethyl)-5-piperazin-1-ylpyridazin-3-amine] | 1230 |
| c1ccc(CCNc2cc(N3CCNCC3)cnn2)cc1 [Example 362, N-(2-Phenylethyl)-5-piperazin-1-ylpyridazin-3-amine] | 2210 |
| c1nnc(NCC2CCCC2)cc1N1CCNCC1 [Example 363, N-(Cyclopentylmethyl)-5-piperazin-1-ylpyridazin-3-amine] | 4730 |
| N[C@@H]1CCN(c2cnnc(NCCc3ccccc3)c2)C1 [Example 364, 5-[(3R)-3-Aminopyrrolidin-1-yl]-N-(2-phenylethyl)pyridazin-3-amine] | 1740 |
| N[C@@H]1CCN(c2cnnc(NC3CCCCC3)c2)C1 [Example 365, 5-[(3R)-3-Aminopyrrolidin-1-yl]-N-cyclohexylpyridazin-3-amine] | 508 |
| CC(C)(CO)CNc1cc(N2CCNCC2)cnn1 [Example 366, 2,2-Dimethyl-3-[(5-piperazin-1-ylpyridazin-3-yl)amino]propan-1-ol] | > 10000 |
| CCCCNc1cc(N2CC[C@@H](N)C2)cnn1 [Example 367, 5-[(3R)-3-Aminopyrrolidin-1-yl]-N-butylpyridazin-3-amine] | 867 |
| N[C@@H]1CCN(c2cnnc(NC3CCCC3)c2)C1 [Example 368, 5-[(3R)-3-Aminopyrrolidin-1-yl]-N-cyclopentylpyridazin-3-amine] | 290 |
| N[C@@H]1CCN(c2cnnc(NCC3CC3)c2)C1 [Example 369, 5-[(3R)-3-Aminopyrrolidin-1-yl]-N-(cyclopropylmethyl)pyridazin-3-amine] | 619 |
| CNC1CN(c2cnnc(NCC3CCCC3)c2)C1 [Example 370, N-(Cyclopentylmethyl)-5-[3-(methylamino)azetidin-1-yl]pyridazin-3-amine] | 224 |
| CC(C)(C)CNc1cc(N2CC[C@@H](N)C2)cnn1 [Example 371, 5-[(3R)-3-Aminopyrrolidin-1-yl]-N-(2,2-dimethylpropyl)pyridazin-3-amine] | 130 |
